Laboratory results: EP0504254B1, “THE USE OF GIBBERELLINS FOR THE MANUFACTURE OF A MEDICAMENT FOR THE TREATMENT OF PROSTATITIS” (ODEN, Per, priority 1989, dated 1991)

Assays:
[1] = test system: male adult uncastrated rats; assay: Dihydrotestosterone-induced hypertrophic growth of the prostatic gland in rats; type: in vivo; details: daily 50 mg dihydrotestosterone alone for three months
Procedure: The weight of the prostate was 814 mg, which was equivalent to about 0.34 % of the total body weight. When the rats were simultaneously given a daily dosis of 100 µg of gibberellins GA₂₀ and GA₃₀, an increase in prostate weight was not detected. The weight of the prostate was in this case 582 mg, which was equivalent to 0.20 % of the total body weight.

castrated rats = details: C.R. Séances Soc. Biol. Filiales 163 (1969); cited from earlier work

SMILES	weight of the prostate [1]	weight of the prostate, equivalent % of the total body weight [1]	prostate weight (castrated rats)
C[C@]12CCC(=O)C[C@@H]1CC[C@@H]1[C@@H]2CC[C@]2(C)[C@@H](O)CC[C@@H]12 [dihydrotestosterone]	814 mg	about 0.34%	–
C=C1C[C@]23C[C@@]1(O)CC[C@H]2[C@@]12C=C[C@H](O)[C@@](C)(C(=O)O1)[C@H]2[C@@H]3C(=O)O [gibberellic acid]	–	–	restitution of prostate weight
